The values that follow come from patent US20160378912A1, “STRUCTURE-BASED MODELING AND TARGET-SELECTIVITY PREDICTION” (EPIGENETX, LLC, priority 2013, published 2016).

The target in test [1] is T1, HDAC8 (Homo sapiens, UniProt Q9BY41).
T1 sequence (Q9BY41 1-377): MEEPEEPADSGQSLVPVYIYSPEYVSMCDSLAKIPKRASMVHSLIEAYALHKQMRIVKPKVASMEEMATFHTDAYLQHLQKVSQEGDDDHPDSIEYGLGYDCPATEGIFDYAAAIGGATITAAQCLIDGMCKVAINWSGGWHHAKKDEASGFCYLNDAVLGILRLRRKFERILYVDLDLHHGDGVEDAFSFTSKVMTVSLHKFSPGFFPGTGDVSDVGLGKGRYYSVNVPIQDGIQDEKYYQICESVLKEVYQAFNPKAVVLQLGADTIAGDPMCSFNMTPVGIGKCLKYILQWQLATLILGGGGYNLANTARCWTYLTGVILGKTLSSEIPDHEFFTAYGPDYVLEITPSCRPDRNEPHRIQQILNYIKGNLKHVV
To be noted: cited from earlier work; for pIC50: training set composition.

Test [2] concerns the target T2, HDAH (Alcaligenes sp., UniProt Q70I53).
T2 sequence (Q70I53 1-369): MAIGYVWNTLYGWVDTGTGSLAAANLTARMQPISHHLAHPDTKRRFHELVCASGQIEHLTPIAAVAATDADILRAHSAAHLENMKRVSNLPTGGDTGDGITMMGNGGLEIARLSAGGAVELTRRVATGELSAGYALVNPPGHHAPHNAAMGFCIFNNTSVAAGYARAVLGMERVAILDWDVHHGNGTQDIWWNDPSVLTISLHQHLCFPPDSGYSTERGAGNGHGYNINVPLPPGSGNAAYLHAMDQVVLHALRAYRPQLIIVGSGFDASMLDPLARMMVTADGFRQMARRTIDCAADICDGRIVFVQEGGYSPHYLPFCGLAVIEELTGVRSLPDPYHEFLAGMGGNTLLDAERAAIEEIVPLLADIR
The following applies: CTS; cited from earlier work.

The target of test [3] is T3, HDAC7 (Homo sapiens, UniProt Q8WUI4).
T3 sequence (Q8WUI4 1-952): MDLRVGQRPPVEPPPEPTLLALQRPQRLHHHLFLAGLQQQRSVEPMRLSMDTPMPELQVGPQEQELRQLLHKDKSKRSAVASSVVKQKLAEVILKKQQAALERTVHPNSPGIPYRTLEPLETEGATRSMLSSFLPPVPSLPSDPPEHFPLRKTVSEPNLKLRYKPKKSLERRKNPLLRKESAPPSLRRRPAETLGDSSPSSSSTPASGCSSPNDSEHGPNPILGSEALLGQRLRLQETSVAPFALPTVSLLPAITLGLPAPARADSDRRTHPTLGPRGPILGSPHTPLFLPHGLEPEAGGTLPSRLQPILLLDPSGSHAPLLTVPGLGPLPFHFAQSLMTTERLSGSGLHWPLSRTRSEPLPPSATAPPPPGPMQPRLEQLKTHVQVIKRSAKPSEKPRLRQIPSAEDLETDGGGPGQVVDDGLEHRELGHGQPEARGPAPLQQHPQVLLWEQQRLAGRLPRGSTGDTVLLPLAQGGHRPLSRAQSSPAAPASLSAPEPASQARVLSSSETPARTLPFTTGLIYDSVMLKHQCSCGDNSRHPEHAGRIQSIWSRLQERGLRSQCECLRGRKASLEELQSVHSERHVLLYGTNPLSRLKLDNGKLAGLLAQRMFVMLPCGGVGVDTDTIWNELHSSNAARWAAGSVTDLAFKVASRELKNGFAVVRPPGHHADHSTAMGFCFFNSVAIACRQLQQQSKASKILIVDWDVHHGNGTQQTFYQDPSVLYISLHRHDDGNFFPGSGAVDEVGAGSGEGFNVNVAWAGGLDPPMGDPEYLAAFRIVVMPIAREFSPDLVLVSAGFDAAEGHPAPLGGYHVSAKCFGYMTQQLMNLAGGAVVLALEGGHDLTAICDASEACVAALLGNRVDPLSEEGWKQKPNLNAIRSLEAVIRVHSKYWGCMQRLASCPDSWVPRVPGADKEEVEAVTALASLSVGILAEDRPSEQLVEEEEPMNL
To be noted: cited from earlier work.

Test [4] has as its system HDAC isoforms. Kind of test: HDAC inhibition profiled over several HDAC isoforms (experimental). In kind it is biochemical, human. The following applies: range of pIC50 over the profiled HDAC isoforms.
Test [5] concerns the target HDAC4 (Homo sapiens, UniProt P56524). The following applies: cited from earlier work; for pIC50: training set composition; for IC50: training set, read-out: HDACs inhibitory activities IC50.
In test [6] the target is HDAC3 (Homo sapiens, UniProt O15379). To be noted: cited from earlier work.
HDAC3, sequence (O15379 whole entry): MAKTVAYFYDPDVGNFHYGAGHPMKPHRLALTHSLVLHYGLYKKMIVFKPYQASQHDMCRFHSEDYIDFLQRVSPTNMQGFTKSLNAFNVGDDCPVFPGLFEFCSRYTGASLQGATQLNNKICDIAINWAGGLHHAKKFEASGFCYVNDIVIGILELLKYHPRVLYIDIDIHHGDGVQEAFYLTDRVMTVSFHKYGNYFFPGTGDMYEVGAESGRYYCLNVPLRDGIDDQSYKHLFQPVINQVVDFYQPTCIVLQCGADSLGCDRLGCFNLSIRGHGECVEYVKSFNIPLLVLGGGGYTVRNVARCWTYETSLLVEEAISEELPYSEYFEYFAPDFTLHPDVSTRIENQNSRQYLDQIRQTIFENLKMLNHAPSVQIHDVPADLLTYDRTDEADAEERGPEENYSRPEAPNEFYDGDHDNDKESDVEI
HDAC3, sequence (Q9Y618 395-489 partner limits assumed): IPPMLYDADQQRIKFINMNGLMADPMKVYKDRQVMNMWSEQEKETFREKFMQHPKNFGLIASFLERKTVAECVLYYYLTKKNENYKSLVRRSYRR
The target of test [7] is T4, HDAC6 (Homo sapiens, UniProt Q9UBN7).
T4 sequence (Q9UBN7 1-1215): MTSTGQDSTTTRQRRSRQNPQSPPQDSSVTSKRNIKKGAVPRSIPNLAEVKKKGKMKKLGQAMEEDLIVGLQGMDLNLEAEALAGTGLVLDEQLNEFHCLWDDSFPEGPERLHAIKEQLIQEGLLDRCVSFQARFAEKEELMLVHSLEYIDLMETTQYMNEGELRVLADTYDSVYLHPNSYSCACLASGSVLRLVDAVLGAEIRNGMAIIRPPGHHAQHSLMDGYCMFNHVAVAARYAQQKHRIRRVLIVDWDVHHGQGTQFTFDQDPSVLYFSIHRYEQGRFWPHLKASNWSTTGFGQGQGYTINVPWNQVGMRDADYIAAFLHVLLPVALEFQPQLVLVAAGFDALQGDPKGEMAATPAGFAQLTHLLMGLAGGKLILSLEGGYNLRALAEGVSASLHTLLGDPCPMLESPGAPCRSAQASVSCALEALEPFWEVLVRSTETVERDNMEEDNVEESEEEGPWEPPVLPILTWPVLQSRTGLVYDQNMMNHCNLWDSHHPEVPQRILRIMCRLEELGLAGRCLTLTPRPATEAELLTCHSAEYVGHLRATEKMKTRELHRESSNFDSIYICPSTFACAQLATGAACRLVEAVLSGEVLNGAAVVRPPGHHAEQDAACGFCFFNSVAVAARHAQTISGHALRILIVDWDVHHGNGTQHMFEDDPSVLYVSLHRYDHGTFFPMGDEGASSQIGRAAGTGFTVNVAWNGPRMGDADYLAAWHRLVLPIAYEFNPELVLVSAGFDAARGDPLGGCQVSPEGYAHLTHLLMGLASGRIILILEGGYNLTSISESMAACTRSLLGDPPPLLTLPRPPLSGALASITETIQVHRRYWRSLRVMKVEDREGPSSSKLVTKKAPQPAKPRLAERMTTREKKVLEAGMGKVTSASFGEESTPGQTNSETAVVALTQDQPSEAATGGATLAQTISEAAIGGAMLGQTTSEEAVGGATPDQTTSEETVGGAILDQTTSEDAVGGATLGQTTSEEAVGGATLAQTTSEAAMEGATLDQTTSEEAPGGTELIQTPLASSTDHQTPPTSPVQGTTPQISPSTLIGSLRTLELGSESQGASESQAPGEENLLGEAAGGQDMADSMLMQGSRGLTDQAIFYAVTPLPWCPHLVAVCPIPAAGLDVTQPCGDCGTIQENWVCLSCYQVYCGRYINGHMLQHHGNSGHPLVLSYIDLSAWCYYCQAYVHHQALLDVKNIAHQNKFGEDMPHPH
To be noted: cited from earlier work; for IC50: HDAC6, MTS, read-out: reported HDACs inhibitory activities IC50; for Exp. pIC50: MTS inhibitors.

Test [8] addresses HDAC2 (Homo sapiens, UniProt Q92769). To be noted: cited from earlier work; for Exp. pIC50: MTS inhibitors.
Test [9] concerns the target HDAC1 (Homo sapiens, UniProt Q13547). The following applies: cited from earlier work; for Exp. pIC50: MTS inhibitors.
Test [10] deals with T5, HDAC10 (Homo sapiens, UniProt Q969S8).
T5 sequence (Q969S8 1-669): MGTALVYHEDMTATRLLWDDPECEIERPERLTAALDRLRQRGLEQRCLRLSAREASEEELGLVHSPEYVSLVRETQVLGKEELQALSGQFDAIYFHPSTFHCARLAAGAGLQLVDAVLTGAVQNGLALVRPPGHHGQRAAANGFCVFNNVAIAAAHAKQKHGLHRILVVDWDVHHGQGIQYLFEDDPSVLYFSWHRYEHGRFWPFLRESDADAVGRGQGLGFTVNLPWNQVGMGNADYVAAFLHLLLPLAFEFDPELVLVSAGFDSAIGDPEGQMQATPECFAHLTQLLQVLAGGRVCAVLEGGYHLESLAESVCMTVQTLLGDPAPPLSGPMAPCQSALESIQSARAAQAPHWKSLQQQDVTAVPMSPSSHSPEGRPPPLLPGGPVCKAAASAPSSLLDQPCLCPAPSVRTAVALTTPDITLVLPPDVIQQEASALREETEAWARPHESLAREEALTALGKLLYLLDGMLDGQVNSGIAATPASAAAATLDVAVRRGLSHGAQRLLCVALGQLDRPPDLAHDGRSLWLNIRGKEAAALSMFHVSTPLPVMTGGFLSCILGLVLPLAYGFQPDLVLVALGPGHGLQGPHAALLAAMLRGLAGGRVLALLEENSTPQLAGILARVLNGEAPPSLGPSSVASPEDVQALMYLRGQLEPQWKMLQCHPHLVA
To be noted: cited from earlier work; for Exp. pIC50: MTS inhibitors; for pIC50exp: experimental value of modeled complex; for pIC50: training set composition.

Setting [11] is: co-crystallized ligand, read-out: IC50.
The mark [12] stands for this setting: training set, read-out: HDACs inhibitory activities IC50.
[13] abbreviates: MTS, read-out: reported HDACs inhibitory activities IC50.
[14] abbreviates: HDAC6, listed with HDAC6-1 complexes.
The mark [15] stands for this setting: HDAC6, listed with HDAC6-2 complexes.

Like-named read-outs stand apart in the source and are kept apart here.

HDAC2, sequence (Q92769 whole entry): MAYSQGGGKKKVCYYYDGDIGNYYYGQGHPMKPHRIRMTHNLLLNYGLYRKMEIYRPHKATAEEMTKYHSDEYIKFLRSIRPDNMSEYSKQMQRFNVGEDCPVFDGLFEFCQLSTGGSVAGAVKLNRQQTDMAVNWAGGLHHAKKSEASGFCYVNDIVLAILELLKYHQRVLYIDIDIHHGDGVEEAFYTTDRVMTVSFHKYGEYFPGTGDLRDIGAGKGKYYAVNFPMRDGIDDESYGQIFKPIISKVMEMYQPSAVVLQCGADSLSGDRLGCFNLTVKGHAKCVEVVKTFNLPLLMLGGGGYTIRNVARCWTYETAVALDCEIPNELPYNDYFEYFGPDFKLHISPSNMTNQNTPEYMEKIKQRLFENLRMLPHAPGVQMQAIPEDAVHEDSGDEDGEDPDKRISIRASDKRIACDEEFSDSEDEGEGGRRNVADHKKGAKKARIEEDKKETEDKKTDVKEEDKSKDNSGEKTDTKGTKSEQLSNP
HDAC1, sequence (Q13547 whole entry): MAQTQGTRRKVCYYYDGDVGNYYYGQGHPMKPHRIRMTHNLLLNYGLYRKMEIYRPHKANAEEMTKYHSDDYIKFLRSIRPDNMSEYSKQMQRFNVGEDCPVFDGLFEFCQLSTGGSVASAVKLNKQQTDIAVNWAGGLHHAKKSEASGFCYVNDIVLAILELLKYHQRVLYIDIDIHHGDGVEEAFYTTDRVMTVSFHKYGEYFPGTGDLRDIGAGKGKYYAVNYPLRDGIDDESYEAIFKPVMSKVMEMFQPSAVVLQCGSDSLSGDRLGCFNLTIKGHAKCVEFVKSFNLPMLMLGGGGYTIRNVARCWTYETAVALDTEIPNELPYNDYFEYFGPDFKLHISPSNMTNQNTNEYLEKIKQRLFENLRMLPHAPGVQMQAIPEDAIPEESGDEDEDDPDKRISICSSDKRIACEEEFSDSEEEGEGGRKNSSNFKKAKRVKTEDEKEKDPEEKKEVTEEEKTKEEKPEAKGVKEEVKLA
HDAC4, sequence (P56524 whole entry): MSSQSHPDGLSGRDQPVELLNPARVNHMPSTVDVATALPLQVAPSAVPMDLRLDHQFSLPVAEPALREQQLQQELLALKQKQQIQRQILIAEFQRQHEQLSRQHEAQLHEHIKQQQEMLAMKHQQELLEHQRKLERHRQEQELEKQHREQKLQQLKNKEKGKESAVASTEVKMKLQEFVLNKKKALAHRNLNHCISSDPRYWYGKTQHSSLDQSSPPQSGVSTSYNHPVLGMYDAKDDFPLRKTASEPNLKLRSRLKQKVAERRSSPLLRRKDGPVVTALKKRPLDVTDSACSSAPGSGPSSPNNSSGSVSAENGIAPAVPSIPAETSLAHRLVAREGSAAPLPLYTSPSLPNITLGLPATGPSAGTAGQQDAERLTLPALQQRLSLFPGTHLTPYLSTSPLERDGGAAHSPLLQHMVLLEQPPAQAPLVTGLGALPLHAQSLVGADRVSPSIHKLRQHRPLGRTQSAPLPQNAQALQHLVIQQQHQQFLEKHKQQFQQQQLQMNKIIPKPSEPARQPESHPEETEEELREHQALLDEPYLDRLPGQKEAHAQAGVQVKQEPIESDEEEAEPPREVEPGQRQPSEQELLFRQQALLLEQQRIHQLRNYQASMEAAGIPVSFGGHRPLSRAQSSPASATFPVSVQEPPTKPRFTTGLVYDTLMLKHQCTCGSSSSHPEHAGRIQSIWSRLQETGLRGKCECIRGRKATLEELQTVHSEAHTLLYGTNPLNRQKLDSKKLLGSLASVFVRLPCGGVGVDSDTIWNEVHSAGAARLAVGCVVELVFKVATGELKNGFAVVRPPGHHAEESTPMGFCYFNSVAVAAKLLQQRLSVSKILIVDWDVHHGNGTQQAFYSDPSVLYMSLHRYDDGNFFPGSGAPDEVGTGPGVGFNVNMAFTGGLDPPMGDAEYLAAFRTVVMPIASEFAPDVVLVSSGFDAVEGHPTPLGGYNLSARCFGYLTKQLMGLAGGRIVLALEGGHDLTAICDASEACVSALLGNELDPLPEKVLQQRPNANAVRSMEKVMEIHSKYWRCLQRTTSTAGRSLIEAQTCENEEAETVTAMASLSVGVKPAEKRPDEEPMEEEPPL

For the molecule “4-dimethylamino-n-(6- hydroxycarbamoyethyl) benzamide-n-hydroxy-7-(4- dimethylaminobenzoyl) aminoheptanamide [MS-344]”, the concentration for half-maximal inhibition (IC50) – broadly, the midpoint of a concentration-inhibition curve – in test [1] (setting [11]) was 0.249 µM. In test [1], the pIC50 (commonly the IC50 on a negative log10 scale, so that one unit is a factor of ten) is 6.60.

With `N[C@H](Cc1ccc(Cl)cc1Cl)C(=O)N1CCN(C(=O)c2ccc(F)cc2F)CC1` [0DI], the half-maximal inhibitory concentration (IC50) in [1] (CTS, read-out: IC50) was 0.2 µM. In test [1] (CTS), the “Experimental pIC50” value is reported as 6.70.

As to `O=C(CCC1CCCC1)NO` [3YP, 3-cyclopentyl-n-hydroxypropanamide], in [2], the “Experimental pIC50” value is 6.54 and the IC50 was 0.29 µM.

`Cn1cc(C(=O)Cc2ccccc2)cc1/C=C/C(=O)NO` [APHA8, (2E)-N-hydroxy-3-[1-methyl-4-(phenylacetyl)-1H-pyrrol-2-yl]prop-2-enamide]: the pIC50 in test [3] (training set composition) and in test [5] was 5.51 each time. For the same molecule, the concentration for half-maximal inhibition (IC50) in test [3] (setting [12]) and in test [5] was 3.1 µM in each case. Further, the “Bioactivity range (ΔpIC50) DpIC50” value in [4] was 1.87.

As to `O=C(CCCCCCC(=O)C(F)(F)F)Nc1ccccc1` [CF3, 9,9,9-trifluoro-8-oxo-n-phenylnonanamide], in [2], the “Experimental pIC50” value was 4.95 and the 50% inhibitory concentration (IC50) was 11.2 µM.

Turning to `CC(C)(C)OC(=O)Nc1ccccc1-c1ccc(NC(=O)CCCCCCC(=O)NO)cc1` [CMC-7f], the “Exp. pIC50” value in [6] (MTS inhibitors) was 7.75; in test [7] (setting [14]) it was 7.96; in test [7] (setting [15]), 7.96; in test [1] (MTS inhibitors), 5.76; in test [8], 7.13; in test [9], 7.24. Besides, the “Exp. pIC50” value in [10] was 7.08. Moreover, the IC50 in test [6] (setting [13]) was 0.018 µM; in test [7], 0.011 µM; in [1] (setting [13]), 1.72 µM; in [8] (setting [13]) it was 0.074 µM; in test [9] (setting [13]), 0.057 µM; in test [10] (setting [13]), 0.083 µM.

`CC(C)(C)OC(=O)Nc1cccc(-c2csc(NC(=O)CCCCCCC(=O)NO)n2)c1` [CMC-25b]: the half-maximal inhibitory concentration (IC50) is 0.0002 µM in test [7] and 0.002 µM in test [10] (setting [13]). For the same molecule, the “Exp. pIC50” value in test [7] (setting [14]) is listed as 9.70; in [7] (setting [15]), 9.70; in test [8], 7.13; in test [10], 8.70.

Consider `CNC(=O)/C(CCCCCCC(=O)Nc1cccc(-c2ccc(Cl)nc2)c1)=N\O` [JMC-23], for which the IC50 in [1] (setting [13]) is 100 µM.

`C[C@@H](NC(=O)c1ccc(C(=O)C(F)(F)F)s1)c1ccccc1` [MCL08-3d]: the “Exp. pIC50” value in test [9] is reported as 6.50.

Turning to `CN(c1ccc(C(=O)NO)cc1)S(=O)(=O)c1ccc(-c2ccccn2)s1` [NHB, N-hydroxy-4-{methyl[(5-pyridin-2-ylthiophen-2-yl)sulfonyl]amino}benzamide], the concentration for half-maximal inhibition (IC50) in test [1] (setting [11]) was 0.175 µM. Besides, in test [1], the pIC50 was 6.76.

Take `CCCC(CCC)C(=O)O` [VALP, valproic acid]: the pIC50exp in test [9] (experimental value of modeled complex) and in test [10] was 3 throughout. In addition, the negative logarithm of the IC50 (pIC50) in test [9] (training set composition) and in test [10] was 3.00 in each case. The 50% inhibitory concentration (IC50) in test [9] (setting [12]) and in test [10] (setting [12]) was 1000 µM throughout. Also, the “Bioactivity range (ΔpIC50) DpIC50” value in [4] is 0.95.

Regarding MS-275, the “Bioactivity range (ΔpIC50) DpIC50” value in test [4] worked out at 2.63.

On to Oxamflatin, for which, in test [4], the “Bioactivity range (ΔpIC50) DpIC50” value amounted to 2.34. Also, in [10], the pIC50exp is 7.301 and the negative logarithm of the IC50 (pIC50) is recorded as 7.30. For the same molecule, in test [10] (setting [12]), the IC50 was 0.05 µM. In test [5], the pIC50 is 7.52 and the IC50 is 0.03 µM.

Take SCRIPTAID: the “Bioactivity range (ΔpIC50) DpIC50” value in test [4] is recorded as 2.76.
